Laboratory results from article PMC7615501 (Journal of immunology (Baltimore, Md. : 1950), 2021).

Tests used:
CD8+ T cell clone 6C5 [1] = details: earlier work; cited from earlier work
HLA-A*0201 = HLA-A*0201 (Homo sapiens, UniProt P04439, D140Y/D185E/D98H/E176V/E277Q/G131W/G231S/I119V/I121R/I166T/I218V/L300P/L318F/N151K/N90K/P208A/P217A/Q86G/Q94H/R138H/R169H/T345S); details: earlier work; cited from earlier work
CD8+ T cell clone 6C5 [2] = test: Activation of clone 6C5 by peptide-pulsed T2 cells, MIP-1β ELISA; assay type: cell-based, human; details: high purity (>95%) peptide preparations

Row | Substance | Recognition by CD8+ T cell clone 6C5 (CD8+ T cell clone 6C5 [1]) | Binding to HLA-A*0201 (HLA-A*0201) | Functional response of clone 6C5, retest with high purity preparations (CD8+ T cell clone 6C5 [2])
1 | LLSY(3-tBu)FGTPT | recognize | bound poorly to HLA-A*0201 | –
2 | FMAYFGVSA | – | – | inert
3 | LTAYMLLAI | – | – | inert
